These results are taken from article PMC4694766, “Modeling-Enabled Characterization of Novel NLRX1 Ligands” (PLoS ONE, 2015).

Entries after “also recorded” stand apart in the source; their conditions may differ. Read-outs that look alike come from different tables or passages of the source.

For one data set, the target named is T1, cNLRX1 (wild type) (Homo sapiens, UniProt Q86UT6).
T1 construct: cNLRX1 (AA 667–970) was cloned into pPinkHC-Alpha-SDK; polyhistidine (6x); made in house; host or cells: Pichia pastoris (Strain 4: ade2, prb1, pep4)
In words: SPR (Biacore T200) direct binding to immobilized cNLRX1 wild type. The settings on record: for kon: NLRX1: WT, read-out: ka. On the procedure: White colonies on drop adenine media were screened for protein expression via small-scale induction and both pellets and supernatants were screened for expression via western blot using an anti-polyhistidine (6x) antibody (Immunology Consultants Laboratory, Inc). […] Every 24 hours post induction cells were fed 10 mL of methanol and 10% filter sterilized sorbitol for 4 days post induction. Cells were subsequently harvested at 10,000 x g for 15 min and were either used immediately or stored at -80°C.
Cells were re-suspended in 40 mL of ice-cold lysis buffer (50mM Sodium Phosphate, 200mM sodium chloride, 25mM Sucrose, 0.1% T-100, pH = 7.2) and sonicated 8 times at max amplitude using a 15 sec ON 45 sec OFF cycle. Lysed cells were centrifuged at 15,000 x g for 30 min at 4°C. Supernatant were loaded onto a 150 mL Super-loop and purified using a programmed immobilized metal affinity chromatography gradient protocol on the AKTA prime plus. Bound protein was washed with 40 column volumes of wash buffer (50 mM sodium phosphate buffer, 300 mM sodium chloride, 20 mM imidazole, pH 8.0) and eluted in 1 mL fractions over a 0.02-1M imidazole 40 mL gradient. Purity was assessed via SDS-PAGE. Proteins were further purified via gel filtration chromoatograhy using a Superdex75 column (16/600) in 50 mM sodium phosphate, 300 mM sodium chloride pH 8.0. […] Protein was dialyzed (1:1000) twice at 4°C for a minimum of 8 hours in appropriate buffers for downstream assays.
(§1) Direct binding experiments were performed via the Biacore T200 Surface Plasmon Resonance (SPR) Technology (Georgetown University). […] The cNLRX1 was immobilized to a CM4 or CM5 chip by amine coupling method. Two adjacent surfaces were activated by injection of a 1:1 (v:v) mixture of 0.1 M N-Hydroxysuccinimide (NHS) and 0.4 M 1-Ethyl-3-(3-dimethyl-aminopropyl)-carbodiimide hydrochloride (EDC) for 720 seconds. Experimental flow cell was then injected with the cNLRX1 that was diluted in 10 mM pH 4.0 sodium acetate buffer to a final concentration of 25 μg/mL. Both experimental and the reference flow cells were inactivated by injection of 1M Ethanolamine-HCl pH 8.0 for 720 seconds.
(§2) Negative control compound, 1,14-bis (3,b-dimethoxypheny1)-tetradecane, was tested at a concentration of 20 μM. Injection time was 60 seconds and dissociation time was 300 seconds. […] Data was analyzed by using the BiaEvaluation software (GE Healthcare) with 1:1 binding model for steady state affinity. Raw data was exported and graphed using Prizm for Mac v5.0d and excel.

Data set [1] has as its system NF-κB p65 activity in BMDMs from wild type and Nlrx1-/- mice. In words: NF-κB p65 ELISA (TransAM) on LPS-stimulated bone marrow derived macrophages. The format is cell-based, mouse. The note with it: LPS 1μg/ml 12 hours, then 40 μM compound 12 hours. The procedure: Bone marrow derived macrophages (BMDM)s were isolated from hind legs of wild type and Nlrx1-/- mice in sterile conditions and cultured for 7 days as described. […] Nuclear extraction was performed on colon homogenates using the Active Motif Nuclear Extraction Kit (Carlsbad, CA) as previously described. ELISA was performed on nuclear fractions using the Active Motif TransAM® NF-κB p65 kit according to the manufacturer’s instructions.
The NF-κB activation by NLRX1 ligands was detected and quantified by using the Trans-AM™ NF-κB p65 ELISA-based assay (Active Motif, Carlsbad, CA) as described in the manual of the Active Motif TransAM® NF-κB p65 kit.
Fig 4 Effect of NLRX1 disruption on NF-κB activation in Bone marrow derived macrophage (BMDM). […] Nuclear extraction was performed on colon homogenates using the Active Motif Nuclear Extraction Kit (Carlsbad, CA). ELISA was performed on both cytoplasmic and nuclear fractions using the Active Motif TransAM® NF-κB p65 kit according to the manufacturer’s instructions. Letter superscripts indicate significant (P-value < 0.05) differences by ANOVA.

For data set [2], the target named is T2, cNLRX1 ASP677, PHE680, PHE681, and GLU684 to alanine mutant (Mutant) (Homo sapiens, UniProt Q86UT6, D677A/E684A/F680A/F681A).
T2 construct: cNLRX1 (AA 667–970) was cloned into pPinkHC-Alpha-SDK; polyhistidine (6x); made in house
In words: SPR (Biacore T200) direct binding to immobilized Mutant cNLRX1. On the procedure: as §1, §2

The test system of data set [3] is DSS-induced colitis and spontaneous pan-enteritis in IL-10−/− mice. The note with it: cited from earlier work.
Another data set concerns DSS-induced colitis. The note with it: for disease activity: 8% DSS six days, PUA 40 mg/kg oral gavage daily vs PBS. On the procedure:
C57BL/6J wild-type (WT) and Nlrx1-/- mice (n = 10) ranging from 8–10 weeks of age were administered 8% DSS (average […] molecular weight) in drinking water for six days. Control mice received tap water. […] On day 6, mice were euthanized via carbon dioxide narcosis with secondary cervical dislocation. All mice were weighed and scored daily. Clinical scores were based on physical appearance (0–3), fecal consistency (0–3), presence of rectal bleeding (0–4), and weight loss (0–3) and assigned a compounded score for overall disease activity (0–4).
Total RNA was isolated from whole mouse colon using a Qiagen (Germantown, MD) RNA isolation mini kit. Complementary DNA (cDNA) was generated from each sample (1 μg RNA) using the iScript cDNA synthesis kit (Bio-Rad). Standards were produced through a polymerase chain reaction on the cDNA with Taq DNA polymerase from Invitrogen. The amplicon was purified using the Mini-Elute PCR purification kit from Qiagen. Expression levels were obtained through quantitative real-time PCR on a Bio-Rad (Hercules, CA) CFX 96 Thermal Cycler using the Bio-Rad SYBR Green Supermix. For analysis, the starting amount of anti-microbial peptide cDNA was compared to that of beta-actin, as a control. cDNA concentrations for genes of interest were examined by RT-PCR as described.
Colonic samples were fixed in 10% buffered formalin, embedded in paraffin, processed routinely and sectioned at 5 μm. Sections were stained with hematoxylin and eosin (H&E) and then examined and graded using an Olympus microscope (Olympus America, Center Valley, PA) and ImagePro software. Sections were graded for leukocytic infiltration (0–4), epithelial erosion (0–4) and mucosal thickening (0–4).

A further data set has as its system PPARγ. The settings on record: cited from earlier work.
Data set [4] concerns the molecule itself. In words: SEC; Superdex 75 column (16/600) at 1 ml/min in 50 mM sodium phosphate, 300 mM sodium chloride, pH 8; blue dextran run alongside. (In general: Size exclusion chromatography separates by hydrodynamic size, large species first.)
[5] abbreviates: Nlrx1-/- mice, day six of DSS, PUA 40 mg/kg oral gavage.
Where [6] appears, read: WT mice, day six of DSS, PUA 40 mg/kg oral gavage.

T2 sequence (Q86UT6 667-970 D677A/F680A/F681A/E684A limits assumed): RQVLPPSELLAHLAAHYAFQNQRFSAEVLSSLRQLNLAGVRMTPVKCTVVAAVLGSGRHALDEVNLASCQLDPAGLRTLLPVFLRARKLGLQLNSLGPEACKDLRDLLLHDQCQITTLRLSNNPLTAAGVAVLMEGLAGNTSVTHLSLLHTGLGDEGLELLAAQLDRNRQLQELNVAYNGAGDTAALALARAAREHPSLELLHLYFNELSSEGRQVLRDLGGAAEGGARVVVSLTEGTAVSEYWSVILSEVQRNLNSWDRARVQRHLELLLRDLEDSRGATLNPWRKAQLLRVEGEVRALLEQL

Consider `COc1cc(CCCCCCCCCCCCCCc2cc(OC)cc(OC)c2)cc(OC)c1` [1,14-bis (3,b-dimethoxypheny1)-tetradecane, reference compound], for which the “binding to cNLRX1 by SPR (in words)” value on cNLRX1 (wild type) (ssRNA 0.5-8 μM, negative control injected at 20 μM) is reported as “failed to bind cNLRX1; also recorded: No binding was observed”.
With `CC/C=C\C/C=C\C/C=C\C/C=C\C/C=C\C/C=C\CCC(=O)O` [DHA, docosahexaenoic acid], on cNLRX1 (wild type) (SPR, cNLRX1 WT, read-out: equilibrium constant of dissociation (KD)), the Kd was 2.3 µM. Also, the NF-κB activity result in data set [1] (Nlrx1-/- BMDMs) is “abrogates the effect”; in data set [1] (wild type BMDMs) it was “suppressed the NF-κB activity”.
At cNLRX1 (wild type), `CCCCC=CC=CC=CCCCCCCCC(=O)O` [ESA, eleostearic acid] gave a Kd of 13.3 µM. The kon on cNLRX1 (wild type) (SPR) is 3420 M⁻¹ s⁻¹. In addition, the “equilibrium constant of dissociation (KD)” value in data set [2] is 170 µM. For the same molecule, the “effect on gut inflammation” value in data set [3] is listed as “able to regulate gut inflammation”.
For the molecule `CCCC\C=C/C=C/C=C\CCCCCCCC(=O)O` [PUA, punicic acid], on cNLRX1 (wild type), binding was put at a Kd of 14.6 µM. At cNLRX1 (wild type) (SPR), the kon stood at 2320 M⁻¹ s⁻¹. Also, in data set [2], the “equilibrium constant of dissociation (KD)” value is 338 µM. Also, the figures for the NF-κB activity entry in data set [1] (Nlrx1-/- BMDMs) and in data set [1] (wild type BMDMs) were “abrogates the effect” and “suppressed the NF-κB activity”, respectively. For the same molecule, the disease activity entry is reported as “no observable inhibition of colitis” in the data set with DSS-induced colitis (Nlrx1-/- mice) and “significant symptom regulation” in the data set on DSS-induced colitis (WT mice). Moreover, the “TNFα mRNA expression in whole colon” value is on record as “overall unaffected” with DSS-induced colitis (setting [5]) and “significantly lower” with DSS-induced colitis (setting [6]). The “colon histopathology (inflammatory amelioration)” value in the data set with DSS-induced colitis (setting [5]) is “failed to show any inflammatory amelioration”. Besides, the “colon histopathology scores (epithelial erosion, leukocytic infiltration, mucosal thickening)” value with DSS-induced colitis (setting [6]) is recorded as “significantly lower scores”. For the same molecule, in the data set with PPARγ, the “binding and activation of PPARγ” value is “robustly bind and activate PPARγ”. Also, in data set [3] (DSS-induced colitis and spontaneous pan-enteritis in IL-10−/− mice), the effect on colitis entry is “ameliorate DSS-induced colitis and spontaneous pan-enteritis”.

B1: C-terminal fragment of the human NLRX1 (cNLRX1), AA 667-970 (domain or fragment, UniProt Q86UT6 667-970, looked up)
chain: RQVLPPSELLDHLFFHYEFQNQRFSAEVLSSLRQLNLAGVRMTPVKCTVVAAVLGSGRHALDEVNLASCQLDPAGLRTLLPVFLRARKLGLQLNSLGPEACKDLRDLLLHDQCQITTLRLSNNPLTAAGVAVLMEGLAGNTSVTHLSLLHTGLGDEGLELLAAQLDRNRQLQELNVAYNGAGDTAALALARAAREHPSLELLHLYFNELSSEGRQVLRDLGGAAEGGARVVVSLTEGTAVSEYWSVILSEVQRNLNSWDRARVQRHLELLLRDLEDSRGATLNPWRKAQLLRVEGEVRALLEQL
notes: NLRX1, human, C-terminal fragment, AA 667-970; Cloned into pPinkHC-Alpha-SDK; The vector may add a secretion signal, but the protein was purified from lysed cells; also called cNLRX1 wildtype; cNLRX1 (WT)
B1: the binding result in data set [4] was “binds”.

The term Kd denotes the constant that tells how readily two partners part at equilibrium.
